Test results from patent publication US20260183275A1, “SUBSTITUTED QUINOLONE COMPOUNDS USEFUL AS INHIBITORS OF TLR9” (Bristol-Myers Squibb Company, priority 2022, published 2026).

Key:
Assay type in all cases: cell-based
human TLR9 = target: T1, human TLR9 (Homo sapiens, UniProt Q9NR96); assay: TLR9 inhibition reporter assay (HEK-Blue cells, SEAP reporter); conditions: HEK-Blue cells overexpressing human TLR9; stimulated with ODN2006 5 nM; SEAP read after 22 hour; dose range 0.05 nM-50 μM
T1 construct: host or cells: HEK-Blue cells
T1 sequence (Q9NR96 26-1032): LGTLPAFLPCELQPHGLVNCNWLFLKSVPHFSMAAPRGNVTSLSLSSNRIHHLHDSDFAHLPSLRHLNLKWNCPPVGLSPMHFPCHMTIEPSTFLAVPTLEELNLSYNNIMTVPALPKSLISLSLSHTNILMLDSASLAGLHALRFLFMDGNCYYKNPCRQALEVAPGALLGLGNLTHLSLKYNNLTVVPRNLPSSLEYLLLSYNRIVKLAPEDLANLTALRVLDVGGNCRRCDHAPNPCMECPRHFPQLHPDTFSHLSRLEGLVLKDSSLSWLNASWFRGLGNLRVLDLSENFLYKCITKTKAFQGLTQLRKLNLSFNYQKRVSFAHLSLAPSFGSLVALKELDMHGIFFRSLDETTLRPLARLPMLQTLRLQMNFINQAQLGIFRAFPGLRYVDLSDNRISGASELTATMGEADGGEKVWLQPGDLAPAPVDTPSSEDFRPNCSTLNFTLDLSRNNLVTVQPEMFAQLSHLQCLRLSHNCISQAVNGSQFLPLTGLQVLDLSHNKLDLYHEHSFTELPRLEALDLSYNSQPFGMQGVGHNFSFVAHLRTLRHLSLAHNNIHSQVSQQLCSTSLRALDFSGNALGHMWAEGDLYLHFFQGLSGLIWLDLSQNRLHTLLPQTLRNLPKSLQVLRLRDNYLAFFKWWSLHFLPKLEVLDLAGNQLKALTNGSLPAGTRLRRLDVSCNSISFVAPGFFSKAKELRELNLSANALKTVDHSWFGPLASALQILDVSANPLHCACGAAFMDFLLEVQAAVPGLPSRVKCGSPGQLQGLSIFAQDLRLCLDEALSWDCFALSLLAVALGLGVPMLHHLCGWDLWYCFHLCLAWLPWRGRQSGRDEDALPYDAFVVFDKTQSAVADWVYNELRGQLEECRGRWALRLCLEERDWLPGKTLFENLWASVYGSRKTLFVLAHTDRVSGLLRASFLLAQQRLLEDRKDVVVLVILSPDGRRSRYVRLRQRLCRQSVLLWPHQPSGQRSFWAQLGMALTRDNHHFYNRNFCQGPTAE
Method in brief: (§1)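 HEK-Blue cells with NF-κB/AP-1-driven SEAP pre-treated 30 min with compounds (0.05 nM-50 μM), then stimulated with gardiquimod 7.5 μM (TLR7), R848 15.9 μM (TLR8) or ODN2006 5 nM (TLR9). SEAP read after 22 h at 37° C; % inhibition relative to agonist+DMSO and reference-inhibitor wells.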

human TLR8 = target: T2, human TLR8 (Homo sapiens, UniProt Q9NR97); assay: TLR8 inhibition reporter assay (HEK-Blue cells, SEAP reporter); conditions: HEK-Blue cells overexpressing human TLR8; stimulated with R848 15.9 μM; SEAP read after 22 hour; dose range 0.05 nM-50 μM
T2 construct: host or cells: HEK-Blue cells
T2 sequence (Q9NR97 27-1041): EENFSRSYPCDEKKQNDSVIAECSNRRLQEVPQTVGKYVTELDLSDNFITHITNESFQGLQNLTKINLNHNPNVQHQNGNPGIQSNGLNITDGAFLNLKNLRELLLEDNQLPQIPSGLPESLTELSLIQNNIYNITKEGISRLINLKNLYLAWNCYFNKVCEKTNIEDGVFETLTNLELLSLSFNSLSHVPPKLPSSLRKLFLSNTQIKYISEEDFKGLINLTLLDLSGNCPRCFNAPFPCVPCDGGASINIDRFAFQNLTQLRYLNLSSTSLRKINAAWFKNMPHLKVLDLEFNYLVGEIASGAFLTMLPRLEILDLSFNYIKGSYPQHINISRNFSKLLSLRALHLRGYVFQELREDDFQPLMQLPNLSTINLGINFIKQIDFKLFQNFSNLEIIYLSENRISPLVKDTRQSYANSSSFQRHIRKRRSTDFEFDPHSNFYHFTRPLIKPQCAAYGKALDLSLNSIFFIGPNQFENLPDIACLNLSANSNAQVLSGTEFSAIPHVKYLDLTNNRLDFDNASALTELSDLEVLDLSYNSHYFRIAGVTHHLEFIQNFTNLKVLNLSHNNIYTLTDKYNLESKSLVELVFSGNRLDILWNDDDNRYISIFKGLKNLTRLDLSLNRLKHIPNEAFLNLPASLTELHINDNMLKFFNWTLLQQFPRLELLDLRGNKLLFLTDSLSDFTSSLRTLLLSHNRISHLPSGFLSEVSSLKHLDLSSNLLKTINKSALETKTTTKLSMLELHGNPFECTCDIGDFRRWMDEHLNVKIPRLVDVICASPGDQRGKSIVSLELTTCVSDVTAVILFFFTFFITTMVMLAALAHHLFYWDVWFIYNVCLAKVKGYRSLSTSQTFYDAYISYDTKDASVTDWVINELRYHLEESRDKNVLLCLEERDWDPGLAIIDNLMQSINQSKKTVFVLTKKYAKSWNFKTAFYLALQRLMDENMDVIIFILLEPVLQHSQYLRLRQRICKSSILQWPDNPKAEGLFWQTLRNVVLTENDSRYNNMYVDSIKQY
Method in brief: as §1

human TLR7 = target: T3, human TLR7 (Homo sapiens, UniProt Q9NYK1); assay: TLR7 inhibition reporter assay (HEK-Blue cells, SEAP reporter); conditions: HEK-Blue cells overexpressing human TLR7; stimulated with gardiquimod 7.5 μM; SEAP read after 22 hour; dose range 0.05 nM-50 μM
T3 construct: host or cells: HEK-Blue cells
T3 sequence (Q9NYK1 27-1049): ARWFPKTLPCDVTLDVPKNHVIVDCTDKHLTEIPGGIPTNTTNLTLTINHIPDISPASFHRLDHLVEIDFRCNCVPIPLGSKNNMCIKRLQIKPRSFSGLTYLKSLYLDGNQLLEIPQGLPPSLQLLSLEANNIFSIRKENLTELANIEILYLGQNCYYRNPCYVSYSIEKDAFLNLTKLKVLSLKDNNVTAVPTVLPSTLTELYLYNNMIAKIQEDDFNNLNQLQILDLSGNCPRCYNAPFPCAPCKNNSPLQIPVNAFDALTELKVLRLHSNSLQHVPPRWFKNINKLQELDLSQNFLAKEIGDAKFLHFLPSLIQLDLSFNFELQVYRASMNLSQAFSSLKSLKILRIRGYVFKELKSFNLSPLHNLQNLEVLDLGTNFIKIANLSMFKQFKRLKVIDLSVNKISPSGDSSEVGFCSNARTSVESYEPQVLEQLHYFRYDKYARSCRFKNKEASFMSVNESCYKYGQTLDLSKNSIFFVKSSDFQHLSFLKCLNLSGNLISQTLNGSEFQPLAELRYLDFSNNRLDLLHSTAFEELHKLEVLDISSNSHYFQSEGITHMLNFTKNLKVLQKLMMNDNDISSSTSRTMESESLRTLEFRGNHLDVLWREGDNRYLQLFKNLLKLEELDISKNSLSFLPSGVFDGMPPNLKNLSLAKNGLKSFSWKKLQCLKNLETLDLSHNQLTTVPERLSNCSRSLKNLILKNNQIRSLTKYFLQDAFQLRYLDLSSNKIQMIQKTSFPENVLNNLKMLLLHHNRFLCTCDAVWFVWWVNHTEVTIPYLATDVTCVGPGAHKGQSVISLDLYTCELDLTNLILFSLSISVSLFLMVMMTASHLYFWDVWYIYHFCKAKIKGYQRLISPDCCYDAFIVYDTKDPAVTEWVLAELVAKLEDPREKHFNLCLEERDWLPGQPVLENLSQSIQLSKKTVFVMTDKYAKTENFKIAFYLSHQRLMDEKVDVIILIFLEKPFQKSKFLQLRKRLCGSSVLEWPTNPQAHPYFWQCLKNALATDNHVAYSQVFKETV
Method in brief: as §1

Row | SMILES | IC50 (human TLR9) | IC50 (human TLR8) | IC50 (human TLR7)
1 | Cn1c(=O)c(-c2ccc(S(C)(=O)=O)cc2)cc2cc(-c3ccc(C4CCN(C5COC5)CC4)cc3)ccc21 [Example 87, 3-(4-methanesulfonylphenyl)-1-methyl-6-{4-[1-(oxetan-3-yl)piperidin-4-yl]phenyl}-1,2-dihydroquinolin-2-one] | 416 nM | 30000 nM | ≥ 50000 nM
2 | CC(C)N1CCC(c2ccc(-c3ccc4c(c3)cc(-c3ccc(S(C)(=O)=O)cc3)c(=O)n4CC(C)(C)O)cc2)CC1 [Example 89, 1-(2-hydroxy-2-methylpropyl)-3-(4-methanesulfonylphenyl)-6-{4-[1-(propan-2-yl)piperidin-4-yl]phenyl}-1,2-dihydroquinolin-2-one] | 465 nM | 10900 nM | 4960 nM
3 | CC(C)N1CCN(c2ccc(Nc3ccc4[nH]c(=O)c(-c5ccc(S(C)(=O)=O)cc5)cc4c3)cc2)CC1 [Example 90, 3-(4-methanesulfonylphenyl)-6-({4-[4-(propan-2-yl)piperazin-1-yl]phenyl}amino)-1,2-dihydroquinolin-2-one] | 493 nM | ≥ 50000 nM | 3090 nM
4 | O=c1[nH]c2ccc(-c3ccc(C4CCN(C5COC5)CC4)cc3)cc2cc1-c1ccc(OC(F)F)cc1 [Example 91, 3-[4-(difluoromethoxy)phenyl]-6-{4-[1-(oxetan-3-yl)piperidin-4-yl]phenyl}-1,2-dihydroquinolin-2-one] | 512 nM | ≥ 50000 nM | ≥ 50000 nM
5 | NS(=O)(=O)c1ccc(-c2cc3cc(-c4ccc(C5CCN(C6COC6)CC5)cc4)ccc3[nH]c2=O)cc1 [Example 92, 4-(6-{4-[1-(oxetan-3-yl)piperidin-4-yl]phenyl}-2-oxo-1,2-dihydroquinolin-3-yl)benzene-1-sulfonamide] | 560 nM | 11400 nM | ≥ 50000 nM
6 | CC(C)N1CCC(c2ccc(-c3ccc4[nH]c(=O)c(-c5ccc6nccnc6c5)cc4c3)cc2)CC1 [Example 93, 6-{4-[1-(propan-2-yl)piperidin-4-yl]phenyl}-3-(quinoxalin-6yl)-1,2-dihydroquinolin-2-one] | 651 nM | 49800 nM | 1870 nM

The next lines start with the values.

Row | IC50 (human TLR9) | IC50 (human TLR8) | IC50 (human TLR7) | SMILES
7 | 298 nM | 15100 nM | 8380 nM | CCCn1c(=O)c(-c2ccc(S(C)(=O)=O)cc2)cc2cc(-c3ccc(C4CCN(C(C)C)CC4)cc3)ccc21 [Example 80, 3-(4-methanesulfonylphenyl)-6-{4-[1-(propan-2-yl)piperidin-4-yl]phenyl}-1-propyl-1,2-dihydroquinolin-2-one]
8 | 309 nM | 796 nM | 333 nM | CC(=O)Nc1ccc(-c2cc3cc(-c4ccc(C5CCN(C(C)C)CC5)cc4)ccc3[nH]c2=O)cc1 [Example 81, N-[4-(2-oxo-6-{4-[1-(propan-2-yl)piperidin-4-yl]phenyl}-1,2-dihydroquinolin-3-yl)phenyl]acetamide]
9 | 312 nM | 19100 nM | 5500 nM | CC(C)N1CCC(c2ccc(-c3ccc4c(c3)cc(-c3ccc(S(C)(=O)=O)cc3)c(=O)n4CCCO)cc2)CC1 [Example 82, 1-(3-hydroxypropyl)-3-(4-methanesulfonylphenyl)-6-{4-[1-(propan-2-yl)piperidin-4-yl]phenyl}-1,2-dihydroquinolin-2-one]
10 | 354 nM | ≥ 50000 nM | 369 nM | CC(C)N1CCC(c2ccc(-c3ccc4[nH]c(=O)c(-c5ccc(NS(C)(=O)=O)cc5)cc4c3)cc2)CC1 [Example 83, N-[4-(2-oxo-6-{4-[1-(propan-2-yl)piperidin-4-yl]phenyl}-1,2-dihydroquinolin-3-yl)phenyl]methanesulfonamide]
11 | 389 nM | 672 nM | 2320 nM | CCc1c(-c2ccc(S(C)(=O)=O)cc2)c(=O)[nH]c2ccc(-c3ccc(N4CCN(C(C)C)CC4)cc3)cc12 [Example 84, 4-ethyl-3-(4-methanesulfonylphenyl)-6-{4-[4-(propan-2-yl)piperazin-1-yl]phenyl}-1,2-dihydroquinolin-2-one]
12 | 400 nM | 26300 nM | 14600 nM | CC(C)Cn1c(=O)c(-c2ccc(S(C)(=O)=O)cc2)cc2cc(-c3ccc(C4CCN(C(C)C)CC4)cc3)ccc21 [Example 85, 3-(4-methanesulfonylphenyl)-1-(2-methylpropyl)-6-{4-[1-(propan-2-yl)piperidin-4-yl]phenyl}-1,2-dihydroquinolin-2-one]
13 | 406 nM | 1550 nM | 10400 nM | CCc1c(-c2ccc(S(C)(=O)=O)cc2)c(=O)n(C)c2ccc(-c3ccc(C4CCN(C(C)C)CC4)cc3)cc12 [Example 86, 4-ethyl-3-(4-methanesulfonylphenyl)-1-methyl-6-{4-[1-(propan-2-yl)piperidin-4-yl]phenyl}-1,2-dihydroquinolin-2-one]
